Results published in PMC7469393, “Binding of 2-(Triazolylthio)acetamides to Metallo-β-lactamase CcrA Determined with NMR” (ACS Omega, 2020).

How the values were obtained:
CcrA [1] = target: T1, CcrA (Bacteroides fragilis, UniProt P25910); test: 1H, […] HSQC NMR titration, chemical shift perturbation, fast exchange; type: binding
CcrA [2] = target: T1, CcrA; test: 1H, […] HSQC NMR titration, slow exchange (relative peak intensities); type: binding

T1 sequence (P25910 19-249): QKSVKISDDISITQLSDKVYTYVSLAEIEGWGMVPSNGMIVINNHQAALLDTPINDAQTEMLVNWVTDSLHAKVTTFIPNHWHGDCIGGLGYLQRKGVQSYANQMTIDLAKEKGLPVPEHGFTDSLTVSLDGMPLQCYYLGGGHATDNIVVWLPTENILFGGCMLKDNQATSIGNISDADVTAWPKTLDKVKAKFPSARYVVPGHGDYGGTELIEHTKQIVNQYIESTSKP

O=C(CSc1nnc(-c2ccccc2C(=O)O)[nH]1)Nc1nc2ccccc2s1 [compound 4, 4]
Kd (CcrA [1]): 11 ± 11 µM

O=C(CSc1nnc(-c2ccccc2C(=O)O)[nH]1)Nc1ccccc1 [compound 5, 5]
Kd (CcrA [1]): 34 ± 43 µM

O=C(CSc1nnc(-c2ccccc2C(=O)O)[nH]1)Nc1ccc(Cl)cc1 [compound 6, 6]
Kd (CcrA [2]): ~2.3 µM
